{"source": "patent US9301955B2", "about": "“Tritoqualine for use in the treatment of cystic fibrosis” (ORPHAN SYNERGY EUROPE-PHARMA, priority 2012, dated 2016)", "tested_on": "IL8 release, epithelial cells from human gingival mucosa", "test": "IL8 release in human ex vivo gingival mucosa model stimulated by substance P", "format": "cell-based", "details": "gingival mucosa stimulated by substance P 10 microM alone; measured at 24 hours; versus 29.6 ng/ml in control group (p=0.04)", "method": "Tritoqualin effect on IL8 release on a human ex vivo model (epithelial Cells from Human gingival extraction maintained in survival) after stimulation of IL8 release\n13 fragments of gingival mucous from different human donors (removal of wisdom teeth of healthy volunteers) were maintained in survival ex vivo. To this end, fragments were placed in inserts themselves willing suspended above the culture wells. The nutrient medium (antibiotics, FCS—Fetal Calf Serum) was added to the bottom of the wells, passage is carried out by slow diffusion of the two compartments by means of a porous membrane ([…]). The whole was maintained in organ culture for 24 hours in an oven to a humid atmosphere at 37° C. in the presence of 5% CO2.\nGingival inflammation was achieved by stimulation of the mucosa with a neurotransmitter, substance P (10 microM) deposited in the culture medium. Tritoqualine was added to the culture medium (systemic effect) at a concentration of 20 microM, 10 minutes after application of substance P. […]\nThe inflammatory cytokine, IL8, a potent chemo attractant of neutrophils, was measured in culture supernatants, 24 hours after deposition of substance P.\nIL8 was measured in ng/ml by immunoassays (kits Gen Probe, France) with a spectrophotometer at 450 nm.", "note": "Ends that are not written are not given here."}
{"substance": "Substance P: neurotransmitter, an established pro-inflammatory compound used to stimulate IL8 release (RPKPQQFFGLM-NH2; ends and bridges not checked; UniProt P20366 58-68, looked up)", "values": [{"measurement": "IL8 release in culture supernatant", "value": 31.7, "unit": "ng/mL"}]}
